From patent publication US20260001888A1, “PYRAZOLOPYRIMIDINE PDE9 INHIBITORS” (Merck Sharp & Dohme LLC, priority 2018, published 2026)

Biological target: Human PDE9 (PDE9A2) (Homo sapiens (Human), UniProt O76083)
Assay: PDE9 IMAP fluorescence polarization (FP) inhibition assay
Type: biochemical
Conditions: apparent inhibition constant; human PDE9A2, FAM-cGMP substrate 50 nM, room temperature
Method: The activity of the compounds in accordance with the present invention as PDE9 inhibitors may be readily determined without undue experimentation using a fluorescence polarization (FP) methodology that is well known in the art (Huang, W., et al., J. Biomol Screen, 2002, 7:215).
In a typical experiment the PDE9 inhibitory activity of the compounds of the present invention was determined in accordance with the following experimental method.
Human PDE9 (PDE9A2, GenBank Accession No. NM_001001567), full length with N-terminal GST tag, was purchased from BPS Bioscience. The fluorescence polarization assay for cyclic nucleotide phosphodiesterases was performed using an IMAP® FP kit supplied by Molecular Devices, Sunnyvale, CA (product #R8139). IMAP® technology has been applied previously to phosphodiesterase assays (Huang, W., et al., J. Biomol Screen, 2002, 7:215). Assays were performed at room temperature in 384-well microtiter plates with an incubation volume of 20.2 μL. Solutions of test compounds were prepared in DMSO and serially diluted with DMSO to yield 8 μL of each of 10 solutions differing by 3-fold in concentration, at 32 serial dilutions per plate. 100% inhibition is determined using a known PDE9 inhibitor, such as 1-(2-chlorophenyl)-6-[(2R)-3,3,3-trifluoro-2-methylpropyl]-1,5-dihydro-4H-pyrazolo[3,4-d]pyrimidine-4-one (BAY 73-6691) (Wunder et al, Mol. Pharmacol., 2005, 68 (6): 1775-81), (6-[(3S,4S)-4-methyl-1-(pyrimidin-2-ylmethyl) pyrrolidin-3-yl]-1-(tetrahydro-2H-pyran-4-yl)-1,5-dihydro-4H-pyrazolo[3,4-d]pyrimidin-4-one (PF-04447943) (Wager et al., ACS Chemical Neuroscience, 2010, 1:435-449). 0% of inhibition is determined by using DMSO (1% final concentrations). A Labcyte Echo 555 (Labcyte, Sunnyvale, CA) is used to dispense 200 nL from each well of the titration plate to the 384 well assay plate. Human PDE9A2 membrane preps were diluted to 1 ng/ml. […] PDE9 enzyme mix and compounds were mixed and incubated at room temperature for 30 min. Following which, FAMcGMP substrate was added, shaken and incubated for an additional 60 min at room temperature. The final concentration of human PDE9 membrane preparations were 0.5 ng/ml. The final concentration of FAM-cGMP was 50 nM. After the incubation period, the enzymatic reaction was stopped by addition of binding solution (IMAP-FP, Molecular Devices, comprised of 80% Solution A, 20% Solution B and a 1:600 dilution of binding reagent) to each well. The plates were shaken then incubated at room temperature for 1 h prior to determining the fluorescence polarization (mP) using a Perkin Elmer En Vision™ plate reader (Waltham, MA).
Fluorescence polarization (mP) was calculated from the parallel(S) and perpendicular (P) fluorescence of each sample well and the analogous values for the median control well, containing only substrate (So and Po), using the following equation: […]
Dose-inhibition profiles for each compound were characterized by fitting the mP data to a four-parameter equation given below. The apparent inhibition constant (KI), the maximum inhibition at the low plateau relative to “100% Inhibition Control” (Imax; e.g. 1=>same as this control), the minimum inhibition at the high plateau relative to the “0% Inhibition Control” (Imin, e.g. 0=>same as the no drug control) and the Hill slope (nH) are determined by a non-linear least squares fitting of the mP values as a function of dose of the compound using an in-house software based on the procedures described by Mosser et al., JALA, 2003, 8:54-63, using the following equation: […]
An apparent (Km) for FAM-labeled […] of 150 nM was determined in separate experiments through simultaneous variation of substrate and selected drug concentrations.

Human PDE9 (PDE9A2), sequence (O76083 other isoform, or with tags, fused parts or gaps): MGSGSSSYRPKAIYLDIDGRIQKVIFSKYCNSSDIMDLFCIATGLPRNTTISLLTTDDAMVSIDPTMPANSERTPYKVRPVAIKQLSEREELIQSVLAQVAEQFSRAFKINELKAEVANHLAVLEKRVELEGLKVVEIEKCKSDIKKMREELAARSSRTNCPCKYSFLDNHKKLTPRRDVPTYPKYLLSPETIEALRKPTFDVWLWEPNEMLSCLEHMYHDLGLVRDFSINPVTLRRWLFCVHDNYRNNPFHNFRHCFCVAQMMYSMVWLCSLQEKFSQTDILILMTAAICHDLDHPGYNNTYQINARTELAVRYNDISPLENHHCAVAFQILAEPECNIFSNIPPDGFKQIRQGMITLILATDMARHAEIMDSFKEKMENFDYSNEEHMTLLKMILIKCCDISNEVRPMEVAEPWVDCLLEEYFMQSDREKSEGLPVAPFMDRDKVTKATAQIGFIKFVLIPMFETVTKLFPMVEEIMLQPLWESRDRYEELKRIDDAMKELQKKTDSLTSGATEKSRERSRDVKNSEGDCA

Row | SMILES | Ki [nM]
1 | CCC(c1ncc(F)cn1)N(C)c1nc2c(c(C#N)nn2C(C)c2ccc(C(F)(F)F)nc2)c(=O)[nH]1 (single isomer, unassigned) [Example 75, 6-((1-(5-fluoropyrimidin-2-yl)propyl)(methyl)amino)-4-oxo-1-(1-(6-(trifluoromethyl)pyridin-3-yl)ethyl)-4,5-dihydro-1H-pyrazolo[3,4-d]pyrimidine-3-carbonitrile] | 3.31
2 | CCC(c1ccc(F)cn1)N(C)c1nc2c(c(C#N)nn2C(C)c2ccc(C(F)(F)F)nc2)c(=O)[nH]1 (single isomer, unassigned) [Example 36, 6-[1-(5-fluoro-2-pyridyl)propyl-methyl-amino]-4-oxo-1-[1-[6-(trifluoromethyl)-3-pyridyl]ethyl]-5H-pyrazolo[3,4-d]pyrimidine-3-carbonitrile] | 19.9
3 | CCC(c1ncc(C(F)F)cn1)N(C)c1nc2c(c(C#N)nn2C(C)c2ccc(C(F)(F)F)nc2)c(=O)[nH]1 (single isomer, unassigned) [Example 19, 6-[1-[5-(difluoromethyl)pyrimidin-2-yl]propyl-methyl-amino]-4-oxo-1-[1-[6-(trifluoromethyl)-3-pyridyl]ethyl]-5H-pyrazolo[3,4-d]pyrimidine-3-carbonitrile] | 7.36
4 | CCC(c1ncc(F)cn1)N(C)c1nc2c(c(C#N)nn2C(C)C2CCOCC2)c(=O)[nH]1 (single isomer, unassigned) [Example 38, 6-[1-(5-fluoropyrimidin-2-yl)propyl-methyl-amino]-4-oxo-1-(1-tetrahydropyran-4-ylethyl)-5H-pyrazolo[3,4-d]pyrimidine-3-carbonitrile] | 8.35
5 | CC(C)C(c1ncccn1)N(C)c1nc2c(c(C#N)nn2C(C)c2ccc(C(F)(F)F)nc2)c(=O)[nH]1 (single isomer, unassigned) [Example 21, 6-[methyl-(2-methyl-1-pyrimidin-2-yl-propyl)amino]-4-oxo-1-[1-[6-(trifluoromethyl)-3-pyridyl]ethyl]-5H-pyrazolo[3,4-d]pyrimidine-3-carbonitrile] | 15.2
6 | CCC(c1ncc(C(F)F)cn1)N(C)c1nc2c(c(C#N)nn2C(C)c2ccc(C(F)(F)F)nc2)c(=O)[nH]1 (single isomer, unassigned) [Example 20, 6-[1-[5-(difluoromethyl)pyrimidin-2-yl]propyl-methyl-amino]-4-oxo-1-[1-[6-(trifluoromethyl)-3-pyridyl]ethyl]-5H-pyrazolo[3,4-d]pyrimidine-3-carbonitrile] | 1.57
7 | C=CCCC(c1ncccn1)N(C)c1nc2c(c(C#N)nn2C(C)c2ccc(C(F)(F)F)nc2)c(=O)[nH]1 (single isomer, unassigned) [Example 41, 6-[methyl(1-pyrimidin-2-ylpent-4-enyl)amino]-4-oxo-1-[1-[6-(trifluoromethyl)-3-pyridyl]ethyl]-5H-pyrazolo[3,4-d]pyrimidine-3-carbonitrile] | 0.42
8 | CCC(c1ncccn1)N(C)c1nc2c(c(C#N)nn2C(C)c2ccc(C(F)(F)F)cc2)c(=O)[nH]1 (single isomer, unassigned) [Example 16, 6-[methyl(1-pyrimidin-2-ylpropyl)amino]-4-oxo-1-[1-[4-(trifluoromethyl)phenyl]ethyl]-5H-pyrazolo[3,4-d]pyrimidine-3-carbonitrile] | 11.1
9 | CCC(c1ccc(F)cn1)N(C)c1nc2c(c(C#N)nn2C(C)c2ccc(C(F)(F)F)nc2)c(=O)[nH]1 (single isomer, unassigned) [Example 34, 6-[1-(5-fluoro-2-pyridyl)propyl-methyl-amino]-4-oxo-1-[1-[6-(trifluoromethyl)-3-pyridyl]ethyl]-5H-pyrazolo[3,4-d]pyrimidine-3-carbonitrile] | 0.16
10 | CCC(Cc1nc2c(c(C#N)nn2C(C)c2ccc(C(F)(F)F)nc2)c(=O)[nH]1)c1ncccn1 (single isomer, unassigned) [Example 88, 4-oxo-6-(2-(pyrimidin-2-yl)butyl)-1-(1-(6-(trifluoromethyl)pyridin-3-yl)ethyl)-4,5-dihydro-1H-pyrazolo[3,4-d]pyrimidine-3-carbonitrile] | 108
11 | CC(Cc1nc2c(c(C#N)nn2C(C)c2ccc(C(F)(F)F)nc2)c(=O)[nH]1)c1ncccn1 (single isomer, unassigned) [Example 83, 4-oxo-6-(2-(pyrimidin-2-yl)propyl)-1-(1-(6-(trifluoromethyl)pyridin-3-yl)ethyl)-4,5-dihydro-1H-pyrazolo[3,4-d]pyrimidine-3-carbonitrile] | 60.7
12 | CC(c1ccc(C(F)(F)F)nc1)n1nc(C#N)c2c(=O)[nH]c(CCc3ncccn3)nc21 (single isomer, unassigned) [Example 79, 4-oxo-6-(2-(pyrimidin-2-yl)ethyl)-1-(1-(6-(trifluoromethyl)pyridin-3-yl)ethyl)-4,5-dihydro-1H-pyrazolo[3,4-d]pyrimidine-3-carbonitrile] | 3.96

The remaining molecules from weak to strong by Ki, led by results:

Row | Ki [nM] | SMILES
13 | 21.9 | CCC(Nc1nc2c(c(C#N)nn2C(C)c2ccc(C(F)(F)F)nc2)c(=O)[nH]1)c1ncccn1 (single isomer, unassigned) [Example 72, 4-Oxo-6-((1-(pyrimidin-2-yl)propyl)amino)-1-(1-(6-(trifluoromethyl)pyridin-3-yl)ethyl)-4,5-dihydro-1H-pyrazolo[3,4-d]pyrimidine-3-carbonitrile]
14 | 6.21 | CC(c1ncccn1)N(C)c1nc2c(c(C#N)nn2C(C)c2ccc(C(F)(F)F)nc2)c(=O)[nH]1 (single isomer, unassigned) [Example 6, 6-[methyl(1-pyrimidin-2-ylethyl)amino]-4-oxo-1-[1-[6-(trifluoromethyl)-3-pyridyl]ethyl]-5H-pyrazolo[3,4-d]pyrimidine-3-carbonitrile]
15 | 2.67 | CCC(c1ncc(F)cn1)N(C)c1nc2c(c(C#N)nn2C(C)C2CCOCC2)c(=O)[nH]1 (single isomer, unassigned) [Example 37, 6-[1-(5-fluoropyrimidin-2-yl)propyl-methyl-amino]-4-oxo-1-(1-tetrahydropyran-4-ylethyl)-5H-pyrazolo[3,4-d]pyrimidine-3-carbonitrile]
16 | 1.05 | CC(c1ccc(C(F)(F)F)nc1)n1nc(C#N)c2c(=O)[nH]c(N3CCC3c3ccc(F)cc3)nc21 (single isomer, unassigned) [Example 57, 6-[2-(4-fluorophenyl)azetidin-1-yl]-4-oxo-1-[1-[6-(trifluoromethyl)-3-pyridyl]ethyl]-5H-pyrazolo[3,4-d]pyrimidine-3-carbonitrile]
17 | 0.6 | CCC(c1ncc(F)cn1)N(C)c1nc2c(c(C#N)nn2C(C)c2ccc(C3CC3)nc2)c(=O)[nH]1 (single isomer, unassigned) [Example 66, 1-[1-(6-cyclopropyl-3-pyridyl)ethyl]-6-[1-(5-fluoropyrimidin-2-yl)propyl-methyl-amino]-4-oxo-5H-pyrazolo[3,4-d]pyrimidine-3-carbonitrile]
18 | 0.6 | CC(C)C(c1ncccn1)N(C)c1nc2c(c(C#N)nn2C(C)c2ccc(C(F)(F)F)nc2)c(=O)[nH]1 (single isomer, unassigned) [Example 23, 6-[methyl-(2-methyl-1-pyrimidin-2-yl-propyl)amino]-4-oxo-1-[1-[6-(trifluoromethyl)-3-pyridyl]ethyl]-5H-pyrazolo[3,4-d]pyrimidine-3-carbonitrile]
